Reference: the supplement of paper PMC10307832

Legend:
Test in all cases: relative viability (nuclei count vs DMSO), 5 days (fraction); higher = more cells survive
[1] = compound: CCOC(=O)CCNc1cc(N2CCc3ccccc3CC2)nc(-c2ccccn2)n1 [GSK-J4] + O=C(CCCCCCC(=O)Nc1ccccc1)NO [Vorinostat] (partner 1 µM)
Outline: (§1)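 Five library-drug doses in √10 steps were combined with a fixed anchor-drug dose, or a single drug was given alone, by pin tool to lung cancer cell lines in 1536-well plates the day after seeding. Nuclei were stained and counted after 5 days. Relative viability is the nuclei count in treated wells over that in vehicle wells, taken as the median of duplicate plates.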

[2] = compound: CN1CCC(CC1)OC2=CC(=C(C=C2)NC3=NC=C4C(=N3)N(C(=O)N4C)C5CCCC5)OC [AZ3146] + Cc1nc(NC(=O)N2CCC[C@H]2C(N)=O)sc1-c1ccnc(C(C)(C)C(F)(F)F)c1 [Alpelisib] (partner 2 µM)
Outline: as §1

[3] = compound: CN1CCC(CC1)OC2=CC(=C(C=C2)NC3=NC=C4C(=N3)N(C(=O)N4C)C5CCCC5)OC [AZ3146] + CS(=O)(=O)CCNCc1ccc(-c2ccc3ncnc(Nc4ccc(OCc5cccc(F)c5)c(Cl)c4)c3c2)o1 [Lapatinib] (partner 2 µM)
Outline: as §1

[4] = compound: CCOC(=O)CCNc1cc(N2CCc3ccccc3CC2)nc(-c2ccccn2)n1 [GSK-J4] + Nc1ncn([C@H]2C[C@H](O)[C@@H](CO)O2)c(=O)n1 [Decitabine] (partner 2 µM)
Outline: as §1

Row | Cell Line | relative viability ([1]; first compound 0.5 µM) | relative viability ([1]; first compound 1.581 µM) | relative viability ([1]; first compound 5 µM) | relative viability ([1]; first compound 15.81 µM) | relative viability ([1]; first compound 50 µM) | relative viability ([2]; first compound 0.08 µM) | relative viability ([2]; first compound 0.253 µM) | relative viability ([2]; first compound 0.8 µM) | relative viability ([2]; first compound 2.53 µM) | relative viability ([2]; first compound 8 µM) | relative viability ([3]; first compound 0.08 µM) | relative viability ([3]; first compound 0.253 µM) | relative viability ([3]; first compound 0.8 µM) | relative viability ([3]; first compound 2.53 µM) | relative viability ([3]; first compound 8 µM) | relative viability ([4]; first compound 0.5 µM) | relative viability ([4]; first compound 1.581 µM) | relative viability ([4]; first compound 5 µM) | relative viability ([4]; first compound 15.81 µM) | relative viability ([4]; first compound 50 µM)
1 | 201T | 0.927 | 0.828 | 0.939 | 0.896 | 0.891 | 0.943 | 0.918 | 0.954 | 0.993 | 1 | 1.03 | 1.06 | 1 | 1.06 | 1.06 | 0.826 | 0.886 | 0.847 | 0.831 | 0.875
2 | A549 |  |  |  |  |  | 0.716 | 0.794 | 0.718 | 0.732 | 0.308 | 0.977 | 0.948 | 0.924 | 0.872 | 0.109 | 0.241 | 0.205 | 0.246 | 0.244 | 0.282
3 | A-427 | 0.814 | 0.518 |  | 0.785 | 0.393 | 1.04 | 1.06 | 1.01 | 0.93 | 1.02 | 0.988 | 1.03 | 0.957 | 0.969 | 1.01 | 0.554 | 0.528 |  | 0.523 | 0.434
4 | ABC-1 | 1.2 | 1.31 | 0.879 | 0.704 | 0.555 | 0.968 | 0.981 | 1.23 | 1 | 1.09 | 1.24 | 1.15 | 1.33 | 1.31 | 1.11 | 1 | 1.16 | 1.05 | 0.883 | 0.795
5 | BEN | 0.559 | 0.46 | 0.511 | 0.571 | 0.505 |  | 0.967 | 1.06 | 1.07 | 0.895 |  | 0.683 | 0.805 | 0.659 | 0.681 | 0.762 | 0.511 | 0.489 | 0.679 | 0.597
6 | CAL-12T | 0.723 | 0.693 | 0.874 | 0.689 | 0.682 | 1.21 | 1.31 | 1.36 | 1.31 | 0.765 | 0.701 |  | 0.588 | 0.771 | 0.56 |  |  |  |  | 
7 | Calu-6 |  |  |  |  |  | 1.01 | 1.01 | 1.04 | 1.03 | 0.787 | 1.07 | 1.16 | 1.01 | 1 | 0.397 |  |  |  |  | 
8 | ChaGo-K-1 | 0.785 |  | 0.619 | 0.673 | 0.668 |  |  |  |  |  |  |  |  |  |  | 0.535 |  | 0.557 | 0.479 | 0.471
9 | EBC-1 |  |  |  |  |  | 0.927 | 0.828 | 0.731 | 0.882 | 0.711 | 0.2 | 0.218 | 0.183 | 0.201 | 0.208 |  |  |  |  | 
10 | IA-LM | 0.901 |  | 1.34 | 0.711 | 0.294 | 0.638 | 0.627 | 0.864 | 0.714 | 0.763 |  | 0.955 | 0.718 | 0.72 | 0.49 |  |  |  |  | 
11 | LCLC-103H | 0.77 | 0.671 | 0.624 | 0.675 | 0.546 | 0.985 | 0.886 | 0.859 | 1.03 | 0.99 |  |  |  |  |  | 0.784 | 0.624 | 0.786 | 0.722 | 0.572
12 | NCI-H441 | 0.716 | 0.602 | 0.779 | 0.714 | 0.715 | 0.58 | 0.719 | 0.675 | 0.787 | 0.647 |  |  |  |  |  | 0.203 | 0.279 | 0.205 | 0.217 | 0.271
13 | NCI-H522 | 0.931 | 0.725 |  | 0.651 | 0.862 |  |  |  |  |  |  |  |  |  |  | 0.776 | 0.611 |  | 0.573 | 0.651
14 | NCI-H1299 |  |  |  |  |  | 1 | 1.01 | 1.02 | 1.07 | 1.08 | 0.892 | 0.97 | 0.985 | 0.958 | 0.787 |  |  |  |  | 
15 | NCI-H1563 |  |  |  |  |  | 0.924 | 0.87 | 1 | 0.927 | 0.882 | 0.695 | 0.881 | 0.951 | 0.927 | 0.873 |  |  |  |  | 
16 | NCI-H1648 | 0.527 |  | 0.868 |  | 0.415 |  |  |  |  |  |  |  |  |  |  | 0.569 |  | 0.718 |  | 0.482
17 | NCI-H1650 | 0.567 | 0.501 | 0.663 | 0.48 | 0.286 |  |  |  |  |  | 0.649 | 1.12 | 0.562 | 0.97 | 0.581 | 0.522 | 0.343 | 0.423 | 0.416 | 0.294
18 | NCI-H1703 |  |  |  |  |  | 0.374 | 0.34 | 0.326 | 0.437 | 0.29 | 1.16 | 1.26 | 0.953 | 0.892 | 0.372 |  |  |  |  | 
19 | NCI-H1792 |  |  |  |  |  | 0.577 | 0.75 | 0.762 | 0.667 | 0.718 | 0.854 | 1.09 | 0.868 | 0.936 | 0.954 | 0.559 | 0.472 | 0.589 | 0.428 | 0.43
20 | NCI-H2228 | 0.642 | 0.873 | 0.823 | 0.617 | 0.797 | 0.694 | 0.812 | 0.679 | 0.705 | 0.603 | 1.08 | 1.13 | 1.21 | 1.23 | 0.889 |  |  |  |  | 
21 | NCI-H2342 | 0.81 | 0.842 | 0.887 | 1.09 | 1.02 |  |  |  |  |  |  |  |  |  |  | 0.645 | 0.691 | 0.776 | 0.75 | 0.7
22 | SW 900 | 0.607 | 0.414 | 0.79 | 0.408 | 0.483 |  |  |  |  |  |  |  |  |  |  | 0.376 | 0.354 | 0.469 | 0.48 | 0.343
